Measured values from US20110256115A1, “HYDROSOLUBLE [6)O-ALPHA-D-GLCP-(1->]N-6-O-BETA-D-GLCP-(1->-PHENOLIC DERIVATIVES WITH DERMOCOSMETIC, NUTRITIONAL AND THERAPEUTIC APPLICATIONS, AND COMPOSITIONS CONTAINING SAID WATER SOLUBLE COMPOUNDS” (Libragen, priority 2008, published 2011).
Where “and” joins values, the source holds several entries; their conditions need not be identical. Equal entries are not always repeated.

Assay: Compared solubility in water
Format: physicochemical
Details: for % of solubility increase = (A − B)/B × 100: versus corresponding O-β-D-Glcp-(1→-phenolic compound); for A = solubility in water of [6)-O-α-D-Glcp-(1→]1-6-O-β-D-Glcp-(1→-phenolic compound / B = solubility in water of O-β-D-Glcp-(1→-phenolic compound) / solubility: pH 4.0 to 5.0, no buffer added, 25° C.; for A = solubility in water of [6)-O-α-D-Glcp-(1→]1-6-O-β-D-Glcp-(1→-phenolic compound: minimal solubility from concentrated syrup; for B = solubility in water of O-β-D-Glcp-(1→-phenolic compound) / solubility: water saturated solution; for solubility: thermodynamic from solid, read-out: B = solubility in water of O-β-D-Glcp-(1→-phenolic compound)
From the text: The phenolic compounds derivatives of the present invention have an improved solubility in water of at least 50% to 5000% as compared to the corresponding 0-β-D-Glcp-(14)-phenolic compound in the same physiological conditions, more preferably at least 50%, 100%, 200%, 400%, 800%, 1000%, 2000%, 3000%, 4000% or 5000%. Solubility of a phenolic compound derivative can be estimated by preparing a saturated water solution of said phenolic compound derivative. Excess solid form of phenolic compound derivative is eliminated by high speed centrifugation and concentration of compound A in the supernatant is estimated by HPLC using appropriate references (see above §‘Prepation of derivative’ for HPLC conditions example). Solubility difference is calculated with formula: […]
For this purpose, these [6)-O-α-D-Glcp-(1→]n-6-O-β-D-Glcp-(1→-phenolic derivatives have been prepared as described in example 1, and concentrated as described in EP2007/055815. The resulting concentrated syrup obtained after purification of these [6)-O-α-D-Glcp-(1→]1-6-O-β-D-Glcp-(1→-phenolic derivatives has been diluted and analyzed by HPLC to estimate the content of soluble [6)-O-α-D-Glcp-(1→]1-6-O-β-D-Glcp-(1→-phenolic derivatives.
In parallel, an excess amount of each corresponding β-D-Glcp-(1→-phenolic derivatives has been diluted in water to enable the preparation of water saturated solutions of these compounds. After high speed centrifugation to remove the excess of solid material, the supernatant of these saturated solutions has been analyzed by HPLC to estimate the content of soluble O-β-D-Glcp-(1→-phenolic derivatives.
Nota: One should notice that solubility of the [6)-O-α-D-Glcp-(1→]1-6-O-(3-D-Glcp-(1→-phenolic derivatives is considered as a minimal solubility as concentration of the initial syrups have not been tested.

Molecule: COc1ccc(C=Cc2cc(O)cc(O[C@@H]3O[C@H](CO[C@H]4O[C@H](CO)[C@@H](O)[C@H](O)[C@H]4O)[C@@H](O)[C@H](O)[C@H]3O)c2)cc1 [[6)-O-α-D-Glcp-(1→]1-6-O^3-β-D-Glcp-(1→-3,5-dihydroxy-4′-methoxystilbene]
- % of solubility increase = (A − B)/B × 100 (In g/L): Higher than 2700%
- % of solubility increase = (A − B)/B × 100 (In mM): Higher than 2000%
- A = solubility in water of [6)-O-α-D-Glcp-(1→]1-6-O-β-D-Glcp-(1→-phenolic compound: > 8.5 g/L and > 15.0 mM

Molecule: COc1ccc(/C=C/c2cc(O)cc(O[C@@H]3O[C@H](CO)[C@@H](O)[C@H](O)[C@H]3O)c2)cc1 [Deoxyrhapontin, 3,5-dihydroxy-4′-methoxystilbene-3-O-β-D-glucopyranoside, reference compound]
- B = solubility in water of O-β-D-Glcp-(1→-phenolic compound): 0.3 g/L and 0.7 mM

Molecule: O=c1ccc2cc(O[C@@H]3O[C@H](CO[C@H]4O[C@H](CO)[C@@H](O)[C@H](O)[C@H]4O)[C@@H](O)[C@H](O)[C@H]3O)c(O)cc2o1 [[6)-O-α-D-Glcp-(1→]1-6-O^6-β-D-Glcp-(1→-esculetin]
- % of solubility increase = (A − B)/B × 100 (In g/L): Higher than 850%
- % of solubility increase = (A − B)/B × 100 (In mM): Higher than 550%
- A = solubility in water of [6)-O-α-D-Glcp-(1→]1-6-O-β-D-Glcp-(1→-phenolic compound: > 12.5 g/L and > 24.9 mM

Molecule: COc1ccc(C=Cc2cc(O)cc(O[C@@H]3O[C@H](CO)[C@@H](O)[C@H](O)[C@H]3O)c2)cc1O [Rhapontin, 4′-methoxy-3,3′,5-stilbenetriol-3-O-β-D-glucopyranoside, reference compound]
- solubility: 300 µg/mL and 700 µM

Molecule: O=C(CCc1ccc(O)cc1)c1c(O)cc(O)cc1O[C@@H]1O[C@H](CO[C@H]2O[C@H](CO)[C@@H](O)[C@H](O)[C@H]2O)[C@@H](O)[C@H](O)[C@H]1O [[6)-O-α-D-Glcp-(1→]1-6-O^2′-β-D-Glcp-(1→-phloretin]
- % of solubility increase = (A − B)/B × 100 (In g/L): Higher than 4750%
- % of solubility increase = (A − B)/B × 100 (In mM): Higher than 3450%
- A = solubility in water of [6)-O-α-D-Glcp-(1→]1-6-O-β-D-Glcp-(1→-phenolic compound: > 53.3 g/L and > 89.1 mM

Molecule: COc1ccc(C=Cc2cc(O)cc(O[C@@H]3O[C@H](CO[C@H]4O[C@H](CO)[C@@H](O)[C@H](O)[C@H]4O)[C@@H](O)[C@H](O)[C@H]3O)c2)cc1O [[6)-O-α-D-Glcp-(1→]1-6-O^3-β-D-Glcp-(1→-4′-methoxy-3,3′,5-stilbenetriol]
- % of solubility increase = (A − B)/B × 100 (In g/L): Higher than 5400%
- % of solubility increase = (A − B)/B × 100 (In mM): Higher than 3950%
- A = solubility in water of [6)-O-α-D-Glcp-(1→]1-6-O-β-D-Glcp-(1→-phenolic compound: > 16.6 g/L and > 28.5 mM

Molecule: Esculetin-6-O-β-D-glucopyranoside [Esculin, reference compound]
- B = solubility in water of O-β-D-Glcp-(1→-phenolic compound): 1.3 g/L and 3.8 mM

Molecule: O=C(CCc1ccc(O)cc1)c1c(O)cc(O)cc1O[C@@H]1O[C@H](CO)[C@@H](O)[C@H](O)[C@H]1O [Phloridzin, Phloretin-2′-O-β-D-glucopyranoside, reference compound]
- solubility: 1100 µg/mL and 2500 µM

Molecule: OC[C@H]1O[C@@H](Oc2cc(O)cc(C=Cc3ccc(O)cc3)c2)[C@H](O)[C@@H](O)[C@@H]1O [O-β-D-Glcp-(1→-resveratrol, Resveratrol-3-O-β-D-glucopyranoside, reference compound]
- solubility: 1200 µg/mL and 3100 µM

Molecule: OC[C@H]1O[C@H](OC[C@H]2O[C@@H](Oc3cc(O)cc(/C=C/c4ccc(O)cc4)c3)[C@H](O)[C@@H](O)[C@@H]2O)[C@H](O)[C@@H](O)[C@@H]1O [[6)-O-α-D-Glcp-(1→]1-6-O^3-β-D-Glcp-(1→-resveratrol]
- % of solubility increase = (A − B)/B × 100 (In g/L): Higher than 5300%
- % of solubility increase = (A − B)/B × 100 (In mM): Higher than 3650%
- A = solubility in water of [6)-O-α-D-Glcp-(1→]1-6-O-β-D-Glcp-(1→-phenolic compound: > 65.0 g/L and > 117.6 mM
